Experiments:
Assay type in all cases: biochemical
Human plasma kallikrein = Human plasma kallikrein (Homo sapiens (Human), UniProt P03952); assay: Determination of the IC50 for plasma kallikrein; details: read-out: IC50 (human PKal)
Procedure: Determination of the IC50 for Plasma Kallikrein
(§1) Human plasma kallikrein (Protogen) was incubated at 25° C. with the fluorogenic substrate H-DPro-Phe-Arg-AFC and various concentrations of the test compound. Residual enzyme activity (initial rate of reaction) was determined by measuring the change in […] at 410 nm and the IC50 value for the test compound was determined.

Human KLK1 = Human KLK1 (Homo sapiens (Human), UniProt P06870); assay: Determination of the IC50 for KLK1; details: human KLK1, 25° C., substrate H-DVal-Leu-Arg-AFC
Human KLK1, sequence (P06870 25-262): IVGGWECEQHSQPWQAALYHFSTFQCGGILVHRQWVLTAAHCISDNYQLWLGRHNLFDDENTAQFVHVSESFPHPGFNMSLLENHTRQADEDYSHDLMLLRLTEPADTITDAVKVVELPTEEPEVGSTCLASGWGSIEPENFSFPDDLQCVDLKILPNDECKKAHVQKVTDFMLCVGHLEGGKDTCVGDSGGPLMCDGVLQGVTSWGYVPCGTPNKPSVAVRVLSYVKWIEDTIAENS
Procedure: Determination of the IC50 for KLK1
as §1, with “KLK1 (Callbiochem)” for “plasma kallikrein (Protogen)”, “H-DVal-Leu-Arg-AFC” for “H-DPro-Phe-Arg-AFC”

Human FXIa = Human FXIa (Homo sapiens (Human), UniProt P03951); assay: Determination of the % inhibition for FXIa; details: 40 μM of the test compound, human FXIa, 25° C.; for inhibition at 40 µM: read-out: % Inhibition @ 40 μM (human FXIa)
Human FXIa, sequence (P03951 388-625 limits assumed): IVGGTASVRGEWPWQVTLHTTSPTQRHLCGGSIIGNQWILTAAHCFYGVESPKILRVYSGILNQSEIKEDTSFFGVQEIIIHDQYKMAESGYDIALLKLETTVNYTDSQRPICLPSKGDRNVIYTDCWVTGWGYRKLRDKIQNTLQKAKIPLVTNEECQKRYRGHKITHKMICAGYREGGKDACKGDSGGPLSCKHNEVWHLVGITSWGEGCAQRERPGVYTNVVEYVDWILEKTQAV
Human FXIa, sequence (P03951 19-387 partner limits assumed): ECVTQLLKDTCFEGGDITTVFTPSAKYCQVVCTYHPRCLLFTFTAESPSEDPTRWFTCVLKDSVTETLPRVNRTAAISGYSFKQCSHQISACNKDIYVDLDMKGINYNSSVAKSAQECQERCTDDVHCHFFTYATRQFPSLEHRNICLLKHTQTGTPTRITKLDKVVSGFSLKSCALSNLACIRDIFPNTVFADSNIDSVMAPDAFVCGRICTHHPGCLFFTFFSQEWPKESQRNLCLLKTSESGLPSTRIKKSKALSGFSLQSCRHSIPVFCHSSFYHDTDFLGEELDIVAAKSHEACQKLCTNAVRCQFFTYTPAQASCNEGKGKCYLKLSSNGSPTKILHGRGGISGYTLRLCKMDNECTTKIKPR
Procedure: Determination of the % Inhibition for FXIa
Human FXIa (Enzyme Research Laboratories) was incubated at 25° C. with the fluorogenic substrate Z-Gly-Pro-Arg-AFC and 40 μM of the test compound. Residual enzyme activity (initial rate of reaction) was determined by measuring the change in […].

Human plasma kallikrein, sequence (P03952 391-638): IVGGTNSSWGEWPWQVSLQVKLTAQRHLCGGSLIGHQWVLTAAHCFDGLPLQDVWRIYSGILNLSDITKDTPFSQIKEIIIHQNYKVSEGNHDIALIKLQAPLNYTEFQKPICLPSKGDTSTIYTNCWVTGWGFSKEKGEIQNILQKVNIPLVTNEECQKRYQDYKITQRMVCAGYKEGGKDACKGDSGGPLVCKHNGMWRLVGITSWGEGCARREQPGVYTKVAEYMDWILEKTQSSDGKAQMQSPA
Human plasma kallikrein, sequence (P03952 20-390 partner): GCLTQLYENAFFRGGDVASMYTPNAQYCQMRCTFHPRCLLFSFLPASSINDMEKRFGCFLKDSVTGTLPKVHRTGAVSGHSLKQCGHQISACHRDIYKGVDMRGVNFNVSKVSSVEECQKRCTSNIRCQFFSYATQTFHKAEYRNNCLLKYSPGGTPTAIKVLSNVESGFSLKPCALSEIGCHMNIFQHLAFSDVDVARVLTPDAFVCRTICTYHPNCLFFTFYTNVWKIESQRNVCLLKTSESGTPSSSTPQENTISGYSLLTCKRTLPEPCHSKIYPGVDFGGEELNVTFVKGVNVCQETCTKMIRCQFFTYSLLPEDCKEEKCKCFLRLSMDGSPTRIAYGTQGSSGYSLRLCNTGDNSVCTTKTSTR

| Structure (SMILES) | IC50 (Human plasma kallikrein) | IC50 (Human KLK1) | inhibition at 40 µM (Human FXIa) | % Inhibition @ 40 μM (human FXIa) (Human FXIa) |
| --- | --- | --- | --- | --- |
| Nc1nn(Cc2ccc(Cn3ccccc3=O)cc2)cc1C(=O)N[C@@H]1CCN(c2cccc(Cl)c2)C1 [Example 106, 3-amino-N-[(3R)-1-(3-chlorophenyl)pyrrolidin-3-yl]-1-({4-[(2-oxopyridin-1-yl)methyl]phenyl}methyl)pyrazole-4-carboxamide] | 0.684 µM | > 40 µM | 4% |  |
| CNC(=O)CNc1ccc(Cn2cc(C(=O)NCCOc3cccc(Cl)c3)c(N)n2)cn1 [Example 78, 3-amino-N-[2-(3-chlorophenoxy)ethyl]-1-[(6-{[(methylcarbamoyl)methyl]amino}pyridin-3-yl)methyl]pyrazole-4-carboxamide] | 6.93 µM | > 40 µM | 4% |  |
| Nc1nn(Cc2ccc(Cn3cccnc3=O)cc2)cc1C(=O)NCCOc1cccc(Cl)c1 [Example 86, 3-amino-N-[2-(3-chlorophenoxy)ethyl]-1-({4-[(2-oxopyrimidin-1-yl)methyl]phenyl}methyl)pyrazole-4-carboxamide] | 0.0302 µM | > 40 µM | 0% |  |
| Nc1nn(Cc2ccc(Cn3ccccc3=O)cc2)cc1C(=O)N[C@H]1CC(=O)N(c2cccc(Cl)c2)C1 [Example 111, 3-amino-N-[(3S)-1-(3-chlorophenyl)-5-oxopyrrolidin-3-yl]-1-({4-[(2-oxopyridin-1-yl)methyl]phenyl}methyl)pyrazole-4-carboxamide] | 0.0421 µM | > 40 µM | 23% |  |
| Nc1nn(Cc2ccc(Cn3ccccc3=O)cc2)cc1C(=O)N[C@H]1CCN(Cc2cccc(Cl)c2)C1 [Example 109, 3-amino-N-[(3S)-1-[(3-chlorophenyl)methyl]pyrrolidin-3-yl]-1-({4-[(2-oxopyridin-1-yl)methyl]phenyl}methyl)pyrazole-4-carboxamide] | 0.384 µM | > 40 µM | 0% |  |
| C[C@@H](NC(=O)c1cn(Cc2ccc(Cn3ccccc3=O)cc2)nc1N)C(=O)N(C)c1cccc(Cl)c1 [Example 117, (2R)-2-{[3-amino-1-({4-[(2-oxopyridin-1-yl)methyl]phenyl}methyl)pyrazol-4-yl]formamido}-N-(3-chlorophenyl)-N-methylpropanamide] | 3.02 µM | > 40 µM | 4% |  |
| Nc1nn(Cc2ccc(Oc3ccccc3)cc2)cc1C(=O)NCCOc1cccc(Cl)c1 [Example 71, 3-amino-N-[2-(3-chlorophenoxy)ethyl]-1-[(4-phenoxyphenyl)methyl]pyrazole-4-carboxamide] | 2.07 µM | > 40 µM | 0% |  |
| Nc1nn(Cc2ccc(Cn3ccccc3=O)cc2)cc1C(=O)N[C@H]1CCN(c2cccc(Cl)c2)C1=O [Example 107, 3-amino-N-[(3S)-1-(3-chlorophenyl)-2-oxopyrrolidin-3-yl]-1-({4-[(2-oxopyridin-1-yl)methyl]phenyl}methyl)pyrazole-4-carboxamide] | 0.0048 µM | > 40 µM | 2% |  |
| Nc1nn(Cc2ccnc(-c3cccnc3)c2)cc1C(=O)NCCOc1cccc(Cl)c1 [Example 91, 3-amino-N-[2-(3-chlorophenoxy)ethyl]-1-{[2-(pyridin-3-yl)pyridin-4-yl]methyl}pyrazole-4-carboxamide] | 3.78 µM | > 40 µM | 0% |  |
| CN(Cc1ccc(Cn2cc(C(=O)NCCOc3cccc(Cl)c3)c(N)n2)cc1)c1ccccn1 [Example 87, 3-amino-N-[2-(3-chlorophenoxy)ethyl]-1-[(4-{[methyl(pyridin-2-yl)amino]methyl}phenyl)methyl]pyrazole-4-carboxamide] | 0.78 µM | > 40 µM | 0% |  |
| COc1cc(Cn2cc(C(=O)NCCOc3cccc(Cl)c3)c(N)n2)ccn1 [Example 73, 3-amino-N-[2-(3-chlorophenoxy)ethyl]-1-[(2-methoxypyridin-4-yl)methyl]pyrazole-4-carboxamide] | > 10 µM | > 40 µM | 0% |  |
| COCc1nn(Cc2ccc(Cn3ccccc3=O)cc2)cc1C(=O)NCCOc1ccc(F)c(Cl)c1 [Example 12, N-[2-(3-chloro-4-fluorophenoxy)ethyl]-3-(methoxymethyl)-1-({4-[(2-oxopyridin-1-yl)methyl]phenyl}methyl)pyrazole-4-carboxamide] | 0.266 µM | > 10 µM | 0% |  |
| CNC(=O)c1ccc(Cn2cc(C(=O)NCCOc3cccc(Cl)c3)c(N)n2)cc1 [Example 61, 3-amino-N-[2-(3-chlorophenoxy)ethyl]-1-{[4-(methylcarbamoyl)phenyl]methyl}pyrazole-4-carboxamide] | 7.25 µM | > 40 µM | 0% |  |
| Nc1nn(Cc2ccc(Cn3ccccc3=O)cc2)cc1C(=O)NCCOc1cccc(Cl)c1 [Example 1] | 0.0029 µM | > 10 µM | 2% |  |
| Nc1nn(Cc2cccc(C(=O)N3CCCC3)c2)cc1C(=O)NCCOc1cccc(Cl)c1 [Example 70, 3-amino-N-[2-(3-chlorophenoxy)ethyl]-1-({3-[(pyrrolidin-1-yl)carbonyl]phenyl}methyl)pyrazole-4-carboxamide] | > 10 µM | > 40 µM | 6% |  |
| Nc1nn(Cc2ccc(Cn3ccccc3=O)cc2)cc1C(=O)NCCOc1ccc(Cl)c(Cl)c1 [Example 30, 3-amino-N-[2-(3,4-dichlorophenoxy}ethyl]-1-({4-[(2-oxopyridin-1-yl)methyl]phenyl}methyl)pyrazole-4-carboxamide] | 0.0968 µM | > 40 µM | 0% |  |
| COCc1nn(Cc2ccc(Cn3ccccc3=O)cc2)cc1C(=O)NCCOc1cc(Cl)ccc1F [Example 9, N-[2-(5-chloro-2-fluorophenoxy)ethyl]-3-(methoxymethyl)-1-({4-[(2-oxopyridin-1-yl)methyl]phenyl}methyl)pyrazole-4-carboxamide] | 0.191 µM | > 10 µM | 0% |  |
| N#Cc1ccc(Cl)cc1OCCNC(=O)c1cn(Cc2ccc(Cn3ccccc3=O)cc2)nc1N [Example 32, 3-amino-N-[2-(5-chloro-2-cyanophenoxy)ethyl]-1-({4-[(2-oxopyridin-1-yl)methyl]phenyl}methyl)pyrazole-4-carboxamide] | 0.0101 µM | > 40 µM | 10% |  |
| C[C@H](COc1cccc(Cl)c1)NC(=O)c1cn(Cc2ccc(Cn3ccccc3=O)cc2)nc1N [Example 113, 3-amino-N-[(2R)-1-(3-chlorophenoxy)propan-2-yl]-1-({4-[(2-oxopyridin-1-yl)methyl]phenyl}methyl)pyrazole-4-carboxamide] | 0.316 µM | > 40 µM | 3% |  |
| Nc1nn(Cc2ccc(Cn3ccccc3=O)cc2)cc1C(=O)NCCCn1cc(Cl)cn1 [Example 21, 3-amino-N-[3-(4-chloropyrazol-1-yl)propyl]-1-({4-[(2-oxopyridin-1-yl)methyl]phenyl}methyl)pyrazole-4-carboxamide] | 2.79 µM | > 40 µM | 56% |  |
| Nc1nn(Cc2cccc(N3CCCC3)n2)cc1C(=O)NCCOc1cccc(Cl)c1 [Example 53, 3-amino-N-[2-(3-chlorophenoxy)ethyl]-1-{[6-(pyrrolidin-1-yl)pyridin-2-yl]methyl}pyrazole-4-carboxamide] | 4.73 µM | > 40 µM | 0% |  |
| Cc1cc(Cl)cc(OCCNC(=O)c2cn(Cc3ccc(Cn4ccccc4=O)cc3)nc2N)c1 [Example 33, 3-amino-N-[2-(3-chloro-5-methylphenoxy)ethyl]-1-({4-[(2-oxopyridin-1-yl)methyl]phenyl}methyl)pyrazole-4-carboxamide] | 0.114 µM | > 40 µM | 29% |  |
| Cc1cc(C(=O)NCCOc2cccc(Cl)c2)c(C)n1Cc1csc(-c2ccccc2)n1 [Example 48, N-[2-(3-chlorophenoxy)ethyl]-2,5-dimethyl-1-[(2-phenyl-1,3-thiazol-4-yl)methyl]pyrrole-3-carboxamide] | 6.62 µM | > 10 µM |  | 3% |
| Nc1nn(Cc2ccc(COc3ncccn3)cc2)cc1C(=O)NCCOc1cccc(Cl)c1 [Example 75, 3-amino-N-[2-(3-chlorophenoxy)ethyl]-1-({4-[(pyrimidin-2-yloxy)methyl]phenyl}methyl)pyrazole-4-carboxamide] | 3.67 µM | > 40 µM | 0% |  |
| CC(=O)N(C)Cc1ccc(Cn2cc(C(=O)NCCOc3cccc(Cl)c3)c(N)n2)cc1 [Example 82, 3-amino-N-[2-(3-chlorophenoxy)ethyl]-1-({4-[(N-methylacetamido)methyl]phenyl}methyl)pyrazole-4-carboxamide] | 0.71 µM | > 40 µM | 0% |  |
| Nc1nn(Cc2ccnc(N3CCCC3)c2)cc1C(=O)NCCOc1cccc(Cl)c1 [Example 50, 3-amino-N-[2-(3-chlorophenoxy)ethyl]-1-{[2-(pyrrolidin-1-yl)pyridin-4-yl]methyl}pyrazole-4-carboxamide] | 0.326 µM | > 40 µM | 59% |  |

— US10781181B2, “N-((het) arylmethyl)-heteroaryl-carboxamides compounds as plasma kallikrein inhibitors” (Kalvista Pharmaceuticals Limited, priority 2014, dated 2020)
